The test system of this experiment is P388 leukemia ip, CD2F1 mice, survival T/C. Put plainly: NCI In Vivo Anticancer Drug Screen. Data for tumor model P388 Leukemia (intraperitoneal) in CD2F1 (CDF1) mice. Particulars: endpoint: median survival time, higher = longer survival. In a few lines: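 Mice carrying the transplanted tumor received test compound or vehicle. Survival was recorded in each group, and the value is the treated-group measurement divided by that of the vehicle-treated control group.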

Setting [1] is: dose: 50.0 mg/kg/injection, schedule: Q01DX005 (ip), vehicle: Klucel (hydroxypropylcellulose) (HPC).
Setting [2] is: dose: 100.0 mg/kg/injection, schedule: Q01DX005 (ip), vehicle: Klucel (hydroxypropylcellulose) (HPC).
Setting [3] is: dose: 200.0 mg/kg/injection, schedule: Q01DX005 (ip), vehicle: Klucel (hydroxypropylcellulose) (HPC).
Setting [4] is: dose: 60.0 mg/kg/injection, schedule: Q01DX005 (ip), vehicle: saline with Tween-80.
The mark [5] stands for this setting: dose: 120.0 mg/kg/injection, schedule: Q01DX005 (ip), vehicle: saline with Tween-80.
The mark [6] stands for this setting: dose: 240.0 mg/kg/injection, schedule: Q01DX005 (ip), vehicle: saline with Tween-80.
Where [7] appears, read: dose: 50.0 mg/kg/injection, schedule: Q01DX009 (ip), vehicle: saline with Tween-80.
Where [8] appears, read: dose: 100.0 mg/kg/injection, schedule: Q01DX009 (ip), vehicle: saline with Tween-80.
[9] abbreviates: dose: 200.0 mg/kg/injection, schedule: Q01DX009 (ip), vehicle: saline with Tween-80.
Where [10] appears, read: dose: 25.0 mg/kg/injection, schedule: Q01DX009 (ip), vehicle: saline with Tween-80.

This note sets out measurements from PubChem BioAssay AID330 (DTP/NCI, 2004).

Values joined by “and” are separate entries in the source; they are usually repeats but may differ in a detail not shown here. Identical values can stand only once. Inconclusive results and toxic doses are left out.

`C[CH2][Ge]([Cl])([CH2]C)[c]1cc[c]([Ge]([Cl])([CH2]C)[CH2]C)cc1`: the T/C was 98 % of control under setting [1], 96 % of control under setting [2] and 99 % of control under setting [3].

Take `O=c1[nH]ccn1-c1ccccc1`: the T/C runs as follows: under setting [4], 102 % of control; under setting [5], 100 % of control; under setting [6], 97 % of control.

Take `CCOC(=O)C(CC)c1ccccc1` (stereo not drawn): the T/C is, setting by setting: under setting [7], 99 % of control; under setting [8], 102 % of control; under setting [9], 112 % of control.

As for `CCCCCCCCC#CC(=O)OC`, the T/C under setting [7] was 97 % of control, the T/C under setting [8] is 92 % of control and the T/C under setting [9] was 97 % of control.

Turning to `C(NC=C(c1ccccc1)c1ccccc1)=C(c1ccccc1)c1ccccc1`, the T/C by setting is: (dose: 100.0 mg/kg/injection, schedule: Q01DX001 (ip), vehicle: Klucel (hydroxypropylcellulose) (HPC)) 103 % of control; (dose: 200.0 mg/kg/injection, schedule: Q01DX001 (ip), vehicle: Klucel (hydroxypropylcellulose) (HPC)) 107 % of control; (dose: 400.0 mg/kg/injection, schedule: Q01DX001 (ip), vehicle: Klucel (hydroxypropylcellulose) (HPC)) 103 % of control.

In the case of `COC(=O)c1c(C(N)=O)c(C)n(NC(=O)c2ccccc2)c1C`, the T/C runs as follows: under setting [4], 95 % of control; under setting [5], 93 % of control; under setting [6], 94 % of control.

Turning to `O=C(C[n+]1ccnc2ccccc21)c1ccc(Cl)cc1`, the T/C is 95 % of control under setting [1], 100 % of control under setting [2] and 106 % of control under setting [3].

For `O=C1NC(=O)/C(=C/C=C/c2ccccc2)S1`, the T/C was 102 % of control and 111 % of control under setting [10]; 102 % of control and 116 % of control and 118 % of control under setting [7]; 93 % of control under setting [8]; 123 % of control under setting [9].

On to `O=C(Nc1ccc(Cl)cc1Cl)c1ccc2c(c1)C(=O)OC2=O`, for which the T/C is, setting by setting: under setting [4], 98 % of control; under setting [5], 89 % of control; under setting [6], 86 % of control.

As to `CCOC(=O)N[C@H]1CCc2cc(O)c(OC)c(OC)c2-c2ccc(SC)c(=O)cc21`, the T/C is, setting by setting: (dose: 1.25 mg/kg/injection, schedule: Q01DX009 (ip), vehicle: Klucel (hydroxypropylcellulose) (HPC)) 120 % of control; (dose: 10.0 mg/kg/injection, schedule: Q01DX009 (ip), vehicle: Klucel (hydroxypropylcellulose) (HPC)) 109 % of control.

On to `CCOc1c(N=Nc2ccccc2)c(C)nn1C(=S)SC`, for which the T/C reads like this: (dose: 60.0 mg/kg/injection, schedule: Q01DX005 (ip), vehicle: Klucel + Tween-80) 110 % of control; (dose: 120.0 mg/kg/injection, schedule: Q01DX005 (ip), vehicle: Klucel + Tween-80) 108 % of control; (dose: 240.0 mg/kg/injection, schedule: Q01DX005 (ip), vehicle: Klucel + Tween-80) 100 % of control.

As for `CCc1ccc2ccc3ccc(CC)nc3c2n1`, the T/C by setting is: under setting [4], 106 % of control; under setting [5], 102 % of control; under setting [6], 99 % of control.

As to `COc1ccc(NC(=O)CCCC(=O)CC(=O)c2ccc(Cl)cc2)c(OC)c1`, the T/C was 109 % of control under setting [4], 103 % of control under setting [5] and 101 % of control under setting [6].

As for `CCOC1(C)OC2OC(COC(c3ccccc3)(c3ccccc3)c3ccccc3)C(OC(=O)c3ccccc3)C(OC(=O)c3ccccc3)C2O1` (stereo not drawn), the T/C was 98 % of control (dose: 12.5 mg/kg/injection, schedule: Q01DX009 (ip), vehicle: distilled water + Tween-80); 90 % of control (dose: 25.0 mg/kg/injection, schedule: Q01DX009 (ip), vehicle: distilled water + Tween-80); 99 % of control (dose: 50.0 mg/kg/injection, schedule: Q01DX009 (ip), vehicle: distilled water + Tween-80).

As for `[Br][Rh][Br].[NH-]c1nc2c(ccc3ccccc32)s1.[NH-]c1nc2c(ccc3ccccc32)s1.[NH-]c1nc2c(ccc3ccccc32)s1.[NH-]c1nc2c(ccc3ccccc32)s1`, the T/C was 109 % of control (dose: 100.0 mg/kg/injection, schedule: Q04DX003 (ip), vehicle: saline); 103 % of control (dose: 200.0 mg/kg/injection, schedule: Q04DX003 (ip), vehicle: saline); 98 % of control (dose: 400.0 mg/kg/injection, schedule: Q04DX003 (ip), vehicle: saline).

On to `O=C(NC(Cc1ccc(Br)cc1)C(=O)O)c1cccc(Br)c1` (stereo not drawn), for which the T/C is 91 % of control under setting [1], 102 % of control under setting [2] and 104 % of control under setting [3].

In the case of `CC(CCCN(CCCl)CCCl)Nc1ccnc2cc(Cl)ccc12` (stereo not drawn), the T/C is 100 % of control (dose: 0.12 mg/kg/injection, schedule: Q01DX009 (ip), vehicle: saline + alcohol); 155 % of control (dose: 0.5 mg/kg/injection, schedule: Q01DX009 (ip), vehicle: saline sonified); 159 % of control (dose: 0.66 mg/kg/injection, schedule: Q01DX009 (ip), vehicle: saline); 155 % of control (dose: 1.0 mg/kg/injection, schedule: Q01DX009 (ip), vehicle: saline sonified); 159 % of control (dose: 1.5 mg/kg/injection, schedule: Q01DX009 (ip), vehicle: saline); 105 % of control (dose: 2.0 mg/kg/injection, schedule: Q01DX009 (ip), vehicle: saline sonified).

`Cc1ccc2c(c1)C1(C)OC(C=CC1S(=O)c1ccccc1)O2` (stereo not drawn): the T/C was 102 % of control under setting [1], 101 % of control under setting [2] and 113 % of control under setting [3].

Regarding `CN(C)CC(CN(C)C)C(=O)c1ccc(Oc2ccccc2)cc1`, the T/C reads like this: (dose: 7.5 mg/kg/injection, schedule: Q01DX005 (ip), vehicle: saline) 123 % of control; (dose: 15.0 mg/kg/injection, schedule: Q01DX005 (ip), vehicle: saline) 120 % of control.

As for `O=C(c1cccnc1)c1cc(-c2ccccn2)c(=O)n2ccccc12`, the T/C under setting [10] was 99 % of control and 104 % of control; the T/C under setting [7] is 107 % of control and 109 % of control and 88 % of control; the T/C under setting [8] is 104 % of control and 107 % of control and 89 % of control; the T/C under setting [9] was 90 % of control.

Turning to `OC1CC2OC2C1O` (stereo not drawn), the T/C (dose: 60.0 mg/kg/injection, schedule: Q01DX005 (ip), vehicle: saline) was 103 % of control; the T/C (dose: 120.0 mg/kg/injection, schedule: Q01DX005 (ip), vehicle: saline) is 111 % of control; the T/C (dose: 240.0 mg/kg/injection, schedule: Q01DX005 (ip), vehicle: saline) was 111 % of control.

For the compound `COc1ccc(C(=O)/C=C/c2ccc3c(c2)OCO3)c(OCc2ccccc2)c1`, the T/C is 98 % of control (dose: 3.75 mg/kg/injection, schedule: Q01DX009 (ip), vehicle: Klucel (hydroxypropylcellulose) (HPC)); 99 % of control (dose: 7.5 mg/kg/injection, schedule: Q01DX009 (ip), vehicle: Klucel (hydroxypropylcellulose) (HPC)); 98 % of control (dose: 15.0 mg/kg/injection, schedule: Q01DX009 (ip), vehicle: Klucel (hydroxypropylcellulose) (HPC)); 94 % of control (dose: 30.0 mg/kg/injection, schedule: Q01DX009 (ip), vehicle: Klucel (hydroxypropylcellulose) (HPC)).

As to `CCN(CC)Cc1cc(C)c(O)c(N=Nc2ccc([N+](=O)[O-])c(OC)c2)c1C`, the T/C was 92 % of control (dose: 100.0 mg/kg/injection, schedule: Q04DX003 (ip), vehicle: saline with Tween-80); 99 % of control (dose: 200.0 mg/kg/injection, schedule: Q04DX003 (ip), vehicle: saline with Tween-80); 119 % of control (dose: 400.0 mg/kg/injection, schedule: Q04DX003 (ip), vehicle: saline with Tween-80).

For the compound `CC(=O)Nc1c(Cl)cc(Cl)c2c1Cc1cc(Cl)ccc1-2`, the T/C is 88 % of control under setting [1], 94 % of control under setting [2] and 112 % of control under setting [3].

As to `COc1ccc(C(=O)CC(=O)C(=O)Nc2ccc(Cl)cc2)cc1`, the T/C is 103 % of control (dose: 50.0 mg/kg/injection, schedule: Q01DX005 (ip), vehicle: saline with Tween-80); 101 % of control (dose: 100.0 mg/kg/injection, schedule: Q01DX005 (ip), vehicle: saline with Tween-80); 109 % of control (dose: 200.0 mg/kg/injection, schedule: Q01DX005 (ip), vehicle: saline with Tween-80).

As for `O=C1CCC([N+](=O)[O-])C(c2ccccc2)N1` (stereo not drawn), under setting [7], the T/C is 100 % of control.

As for `Cc1ccc(S(=O)(=O)N2CC3CC=C(Cc4ccnc5ccccc45)CC(C2)C3=O)cc1` (stereo not drawn), the T/C (dose: 100.0 mg/kg/injection, schedule: Q04DX003 (ip), vehicle: Klucel (hydroxypropylcellulose) (HPC)) is 105 % of control; the T/C (dose: 200.0 mg/kg/injection, schedule: Q04DX003 (ip), vehicle: Klucel (hydroxypropylcellulose) (HPC)) was 91 % of control; the T/C (dose: 400.0 mg/kg/injection, schedule: Q04DX003 (ip), vehicle: Klucel (hydroxypropylcellulose) (HPC)) is 96 % of control.
